Assay results from patent publication US4950686A, “Anti-mycoplasma agent” (Shionogi & Co., Ltd., priority 1986, dated 1990).
Converted amounts (≈) assume the structure as drawn. Like-named read-outs stand apart in the source and are kept apart here.

Experiments:
Type in all cases: cell-based
[1] = test system: Mycoplasma gallisepticum MR-1 (wild strain, tylosin-resistant); test: Anti-mycoplasma activity in vitro (MIC, broth dilution), strain MR-1; details: Mg MR-1, 37° C., 7 days
Description: (§1) (1) Anti-mycoplasma activity test in vitro
(§2) MIC values of each of Tropolones were measured on the following strains according to the following method.
(§3) (a) Mycoplasma gallisepticum
MR-1 (wild strain, tylosin-resistant)
(§4) Medium: Chick PPLO broth supplemented with 20% equine serum (Eiken Kagaku Co., Ltd.)
(§5) Method: Broth dilution method
(§6) Inoculum: Culture incubated at 37° C. for 24-48 hr which is diluted with broth to 10^6 CCU/ml immediately before the use.
(§7) To 1.6 ml of the broth is added 0.2 ml of an agent which has been subjected to 2-fold dilution and then added 0.2 ml of inoculum, which is incubated at 37° C. for 7 days.

[2] = test system: Mycoplasma gallisepticum T-7-T (wild strain, tylosin-resistant); test: Anti-mycoplasma activity in vitro (MIC, broth dilution), strain T-7-T; details: Mg T-7-T, 37° C., 7 days
Description: as §1, §2, §3
T-7-T (wild strain, tylosin-resistant)
as §4, §5, §6, §7

[3] = test system: Mycoplasma hyopneumoniae ST-11 (standard strain); test: Anti-mycoplasma activity in vitro (MIC, broth dilution), strain ST-11; details: Mh ST-11
Description: as §1, §2
(b) Mycoplasma hyopneumoniae
Strain: ST-11 (standard strain)
Medium: 850 ml of Hanks' solution supplemented with 0.5% lactoalbumin, 50 ml of 25% yeast, 100 ml of equine serum and 4-6 ml of 0.5% phenol red (pH 7.4-7.6)
as §5
Inoculum: Culture which is incubated for 3-4 days and diluted 10 times with the broth if color of the broth becomes yellow then. If it needs over 4 days until color of the broth becomes yellow, it is further subcultured. This is diluted 10 times with the broth to give inoculum.
Assay is done in the same manner as in the above (a).

[4] = test system: Mycoplasma gallisepticum S6 (standard strain); test: Anti-mycoplasma activity in vitro (MIC, broth dilution), strain S6; details: Mg S6, 37° C., 7 days
Description: as §1, §2, §3, §4, §5, §6, §7

[5] = Mycoplasmoides gallisepticum, 168 h, read-out: MIC
[6] = Mesomycoplasma hyopneumoniae, read-out: MIC

Row | Molecule | MIC [1, 5] | MIC [2, 5] | MIC [3, 6] | MIC [4, 5] | MIC [1] | MIC [2] | MIC [3] | MIC [4]
1 | O=c1c(O)ccccc1O [Compound 27, 7-Hydroxytropolone] | 12.5 µg/mL (≈ 90.5 µM) | 12.5 µg/mL (≈ 90.5 µM) | 12.5 µg/mL (≈ 90.5 µM) | 12.5 µg/mL (≈ 90.5 µM) | – | – | – | –
2 | Cc1ccccc(O)c1=O [Compound 28, 7-Methyltropolone] | 0.2 µg/mL (≈ 1.47 µM) | 0.39 µg/mL (≈ 2.86 µM) | 0.1 µg/mL (≈ 0.734 µM) | 0.1 µg/mL (≈ 0.734 µM) | – | – | – | –
3 | Tropolone cobalt complex [Compound 3] | – | – | – | – | 3.13 µg/mL | 1.56 µg/mL | 0.78 µg/mL | 1.56 µg/mL
4 | Tropolone iron complex [Compound 1] | – | – | – | – | 0.56 µg/mL | 0.78 µg/mL | 0.39 µg/mL | 0.78 µg/mL
5 | Tropolone zinc salt [Compound 7] | – | – | – | – | 3.13 µg/mL | 3.13 µg/mL | 0.78 µg/mL | 1.56 µg/mL
